In patent US9598440B2, “Inhibitors of IRAK4 activity” (MERCK SHARP & DOHME CORP., priority 2012, dated 2017) one finds IC50 data, which are given here for 18 compounds.

Broadly, the IC50 is the concentration that inhibits the measured activity by half. A high value points to a need for much substance.

IRAK4, sequence (Q9NWZ3 whole entry): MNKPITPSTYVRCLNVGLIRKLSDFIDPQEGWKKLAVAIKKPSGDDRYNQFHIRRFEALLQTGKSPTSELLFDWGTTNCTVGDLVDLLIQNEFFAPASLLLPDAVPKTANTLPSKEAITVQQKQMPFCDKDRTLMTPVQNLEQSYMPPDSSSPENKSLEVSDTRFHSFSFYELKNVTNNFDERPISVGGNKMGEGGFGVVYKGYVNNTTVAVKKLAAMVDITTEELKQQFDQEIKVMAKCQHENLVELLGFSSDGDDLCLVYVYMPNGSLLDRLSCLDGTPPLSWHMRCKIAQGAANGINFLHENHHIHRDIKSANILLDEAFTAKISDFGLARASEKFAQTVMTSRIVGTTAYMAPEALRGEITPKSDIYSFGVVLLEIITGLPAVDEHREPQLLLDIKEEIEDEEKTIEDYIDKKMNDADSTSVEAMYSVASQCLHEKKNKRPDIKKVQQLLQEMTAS

This assay addresses IRAK4 (Homo sapiens (Human), UniProt Q9NWZ3). In words: Determination of IRAK4 kinase activity (IMAP fluorescence polarization, phosphorylation of fluorescent peptide substrate). The following applies: 0.5 nM GST tagged IRAK4, 100 nM peptide substrate RP7030, 100 μM ATP, 30 minutes at 25° C. It is filed as biochemical. Here is the method:
The kinase activity of IRAK4 is determined by its ability to catalyze the phosphorylation of a fluorescent polypeptide substrate. The extent of phosphorylation is measured using IMAP technology (Molecular Devices) where the phosphorylated fluorescent substrate binds to the large M(III)-based nanoparticles which reduces the rotational speed of the substrate and thus increases its fluorescent polarization (FP).
Procedure: A 20 μl reaction mixture contains 10 mM TriHCl, pH 7.2, 0.5 nM GST tagged IRAK4 (SignalChem), 100 nM fluorescent peptide substrate (RP7030, Molecular Devices), 100 μM ATP, 1 mM DTT, 1 mM MgCl2, and 0.01% Tween 20. The reaction is initiated by the addition of ATP. After incubation for 30 minutes at 25° C., 60 μl of Progressive IMAP Reagent (Molecular Devices) is added to stop the reaction. Change in RP7030's FP is determined by a FP reader (Analyst HT, LJL BioSystems). Analytical LCMS Conditions: • Condition A: Phenomenex Luna C18 (4.6×250 mm), 95:5 to 5:95 water:MeCN (0.05% TFA), over 10 min, hold 6 min. • Condition B: Agilent SBC (3.0×50 mm), solvent A: H20-0.1% TFA; • solvent B: ACN-0.1% TFA; GRADIENT TABLE: 0 min:10% B, 0.3 min: 10% B, 1.5 min: 95% B, 2.70 min: 95% B, 2.76 min: 10% B, stop time 3.60 min.
(Fluorescence polarisation rises when a labelled molecule tumbles more slowly, as on binding a larger partner.)
Regarding `Cc1cccc(Nc2ncc(-c3nc4ccccc4s3)c(N[C@@H]3CC(C(C)(C)O)[C@@H](O)[C@H]3O)n2)c1` (stereo in doubt) [Example 118, 5-(benzo[d]thiazol-2-yl)-6-(((1R,2S,3R,4R)-2,3-dihydroxy-4-(2-hydroxypropan-2-yl)cyclopentyl)amino)-2-(m-tolylamino)pyrimidine], the IC50 was 16 nM.

Consider `CC(C)(O)C1C[C@@H](Nc2nc(Nc3ccccc3)ncc2-c2nc3ccccc3s2)[C@H](O)[C@@H]1O` (stereo in doubt) [Example 119, 5-(benzo[d]thiazol-2-yl)-6-(((1R,2S,3R,4R)-2,3-dihydroxy-4-(2-hydroxypropan-2-yl)cyclopentyl)amino)-2-(phenylamino)pyrimidine], for which 16 nM corresponded to half-maximal inhibition (IC50).

In the case of `CC(C)(O)C1C[C@@H](Nc2nc(Nc3ccnc(C(F)(F)F)c3)ncc2-c2nc3ccccc3s2)[C@H](O)[C@@H]1O` (stereo in doubt) [Example 120, 5-(benzo[d]thiazol-2-yl)-6-(((1R,2S,3R,4R)-2,3-dihydroxy-4-(2-hydroxypropan-2-yl)cyclopentyl)amino)-2-((2-(trifluoromethyl)pyridin-4-yl)amino)pyrimidine], the IC50 came out at 10 nM.

`CC(C)(O)C1C[C@@H](Nc2nc(Nc3cccc(C(F)(F)F)c3)ncc2-c2nc3ccccc3s2)[C@H](O)[C@@H]1O` (stereo in doubt) [Example 121, 5-(benzo[d]thiazol-2-yl)-6-(((1R,2S,3R,4R)-2,3-dihydroxy-4-(2-hydroxypropan-2-yl)cyclopentyl)amino)-2-((3-(trifluoromethyl)phenyl)amino)pyrimidine] registered an IC50 of 386 nM.

Take `CC(C)(O)C1C[C@@H](Nc2nc(Nc3cc(F)cc(F)c3)ncc2-c2nc3ccccc3s2)[C@H](O)[C@@H]1O` (stereo in doubt) [Example 122, 5-(benzo[d]thiazol-2-yl)-2-((3,5-difluorophenyl)amino)-6-(((1R,2S,3R,4R)-2,3-dihydroxy-4-(2-hydroxypropan-2-yl)cyclopentyl)amino)pyrimidine]: the IC50 was 163 nM.

Compound `COc1cc(Nc2ncc(-c3ccc4cccc(C)c4n3)c(N[C@@H]3CC(C(C)(C)O)[C@@H](O)[C@H]3O)n2)ccn1` (stereo in doubt) [Example 123, 6-(((1R,2S,3R,4R)-2,3-dihydroxy-4-(2-hydroxypropan-2-yl)cyclopentyl)amino)-2-((2-methoxypyridin-4-yl)amino)-5-(8-methylquinolin-2-yl)pyrimidine] registered a half-inhibitory concentration (IC50) of 712 nM.

`COc1ccc(Nc2ncc(-c3nc4ccccc4s3)c(N[C@@H]3CC(C(C)(C)O)[C@@H](O)[C@H]3O)n2)c(OC)c1` (stereo in doubt) [Example 125, 5-(benzo[d]thiazol-2-yl)-6-(((1R,2S,3R,4R)-2,3-dihydroxy-4-(2-hydroxypropan-2-yl)cyclopentyl)amino)-2-((2,4-dimethoxyphenyl)amino)pyrimidine] yielded an IC50 of 60 nM.

Compound `COc1cc(Nc2ncc(-c3nc4ccccc4s3)c(N[C@@H]3CC(C(C)(C)O)[C@@H](O)[C@H]3O)n2)ccn1` (stereo in doubt) [Example 126, 5-(benzo[d]thiazol-2-yl)-6-(((1R,2S,3R,4R)-2,3-dihydroxy-4-(2-hydroxypropane-2-yl)cyclopentyl)amino)-2-((2-methoxypyridin-4-yl)amino)pyrimidine] had an IC50 of 9 nM.

Turning to `COc1cc(Nc2ncc(-c3nc4cnccc4s3)c(N[C@@H]3CC(C(C)(C)O)[C@@H](O)[C@H]3O)n2)ccn1` (stereo in doubt) [Example 136, 6-(((1R,2S,3R,4R)-2,3-dihydroxy-4-(2-hydroxypropan-2-yl)cyclopentyl)amino)-2-((2-methoxypyridin-4-yl)amino)-5-(thiazolo[4,5-c]pyridin-2-yl)pyrimidine], the IC50 was 0.7 nM.

On to `Cc1cc(Nc2ncc(-c3nc4cnccc4s3)c(N[C@@H]3CC(C(C)(C)O)[C@@H](O)[C@H]3O)n2)cc(C)n1` (stereo in doubt) [Example 137, 6-(((1R,2S,3R,4R)-2,3-dihydroxy-4-(2-hydroxypropan-2-yl)cyclopentyl)amino)-2-((2,6-dimethylpyridin-4-yl)amino)-5-(thiazolo[4,5-c]pyridin-2-yl)pyrimidine], for which it took 0.2 nM to reach half-maximal inhibition (IC50).

In turn, `Cc1cc(Nc2ncc(-c3nc4c(C)nccc4s3)c(N[C@@H]3CC(C(C)(C)O)[C@@H](O)[C@H]3O)n2)cc(C)n1` (stereo in doubt) [Example 138, 6-(((1R,2S,3R,4R)-2,3-dihydroxy-4-(2-hydroxypropan-2-yl)cyclopentyl)amino)-2-((2,6-dimethylpyridin-4-yl)amino)-5-(4-methylthiazolo[4,5-c]pyridin-2-yl)pyrimidine] came in with an IC50 of 0.5 nM.

With `Cc1cc(Nc2cc(N[C@H]3C[C@@H](C(C)(C)O)[C@H](O)[C@@H]3O)c(-c3nc(C)cs3)cn2)cc(C)n1` (stereo in doubt) [Example 162, (1S,2R,3S,5R)-3-((2-((2,6-dimethylpyridin-4-yl)amino)-5-(4-methylthiazol-2-yl)pyridin-4-yl)amino)-5-(2-hydroxypropan-2-yl)cyclopentane-1,2-diol], the midpoint of inhibition, the IC50, lay at 37 nM.

`Cc1cc(Nc2cc(N[C@H]3C[C@@H](C(C)(C)O)[C@H](O)[C@@H]3O)c(-c3ccc4ccccc4n3)cn2)cc(C)n1` (stereo in doubt) [Example 164, (1S,2R,3 S,5R)-3-((2-((2,6-dimethylpyridin-4-yl)amino)-5-(quinolin-2-yl)pyridin-4-yl)amino)-5-(2-hydroxypropan-2-yl)cyclopentane-1,2-diol] registered an IC50 of 3 nM.

For `OC[C@H]1C[C@@H](Nc2nc(Nc3ccccc3)ncc2-c2nc3ccccc3s2)[C@H](O)[C@@H]1O` [Example 1, (1R,2S,3R,5R)-3-((5-(benzo[d]thiazol-2-yl)-2-(phenylamino)pyrimidin-4-yl)amino)-5-(hydroxymethyl)cyclopentane-1,2-diol], it took 20 nM to reach half-maximal inhibition (IC50).

Compound `OC[C@H]1C[C@@H](Nc2nc(Nc3ccc(O)cc3)ncc2-c2nc3ccccc3s2)[C@H](O)[C@@H]1O` [Example 2, (1R,2S,3R,5R)-3-((5-(benzo[d]thiazol-2-yl)-2-((4-hydroxyphenyl)amino)pyrimidin-4-yl)amino)-5-(hydroxymethyl)cyclopentane-1,2-diol] yielded an IC50 of 5.8 nM.

The compound `OC[C@H]1C[C@@H](Nc2nc(Nc3cccc(O)c3)ncc2-c2nc3ccccc3s2)[C@H](O)[C@@H]1O` [Example 3, (1R,2S,3R,5R)-3-((5-(benzo[d]thiazol-2-yl)-2-((3-hydroxyphenyl)amino)pyrimidin-4-yl)amino)-5-(hydroxymethyl)cyclopentane-1,2-diol] yielded an IC50 of 12 nM.

`COc1cccc(Nc2ncc(-c3nc4ccccc4s3)c(N[C@@H]3C[C@H](CO)[C@@H](O)[C@H]3O)n2)c1` [Example 4, (1R,2S,3R,5R)-3-((5-(benzo[d]thiazol-2-yl)-2-((3-methoxyphenyl)amino)pyrimidin-4-yl)amino)-5-(hydroxymethyl)cyclopentane-1,2-diol] gave an IC50 of 137 nM.

In turn, `Nc1ncc(-c2nc3ccccc3o2)c(N[C@@H]2C[C@H](CO)[C@@H](O)[C@H]2O)n1` [Example 5, (1R,2S,3R,5R)-3-((2-amino-5-(benzo[d]oxazol-2-yl)pyrimidin-4-yl)amino)-5-(hydroxymethyl)cyclopentane-1,2-diol] displayed an IC50 of 2560 nM.
